Numbered stars: 1 amine (or outer) side, 2 acyl side, 3 side chain; on linkers, the order of the positions; unused ones are H or OH. Bridge positions count the residues as written; N and C are the ends. Square brackets hold non-standard residues; d marks the D form. Peptide text beside a SMILES is read from it. I, II: the chains in the order shown. Actinocin(9to1) = Cc1c2oc3c(C)ccc(C(=O)[*:1])c3nc-2c(C(=O)[*:2])c(N)c1=O; NMeV = CN[C@H](C(=O)O)C(C)C; Sar = CNCC(=O)O

The test system of experiment [1] is E12DNA-HG (DNA, duplex) ACGCACGT/ACGTGCGT
Kind of experiment: NMR (2D NOESY and HSQC). Particulars: 125 mM NaCl; 15 mM sodium phosphate, 0.1 mM EDTA, pH 5.3.

For experiment [2], the system named is E12DNA-WC (DNA, duplex) ACACGTAT/ATACGTGT
The experiment can be described thus: NMR (2D HSQC chemical shift perturbation). Particulars: 125 mM NaCl; 15 mM sodium phosphate, 0.1 mM EDTA, pH 5.3 or 6.8; room temperature.

The test system of experiment [3] is E12DNA (DNA, duplex) ACACGTACGTGT
The experiment can be described thus: NMR (HSQC chemical shift perturbation, relaxation dispersion). Particulars: 125 mM NaCl; 15 mM sodium phosphate, 0.1 mM EDTA, pH 5.3 or 6.8, 8% D2O; slow exchange.

Experiment [4] relates to AcDNA (DNA, duplex) AGATATGCATATCT
The experiment can be described thus: NMR (HSQC, NOESY, relaxation dispersion). The following applies: 125 mM NaCl; 15 mM sodium phosphate, 0.1 mM EDTA, pH 5.3 or 6.8, 8% D2O; two orientations of the chromophore.

For `CSC1SC[C@H]2C(=O)N(C)[C@@H](C(C)C)C(=O)OC[C@@H](NC(=O)c3cnc4ccccc4n3)C(=O)N[C@@H](C)C(=O)N(C)[C@@H]1C(=O)N(C)[C@@H](C(C)C)C(=O)OC[C@@H](NC(=O)c1cnc3ccccc3n1)C(=O)N[C@@H](C)C(=O)N2C` (stereo partly shown), the binding entry in experiment [1], in experiment [2] and in experiment [3] was “yes” throughout.
On to `Cc1c2oc3c(C)ccc(C(=O)N[C@@H]4C(=O)N[C@H](C(C)C)C(=O)N5CCC[C@H]5C(=O)N(C)CC(=O)N(C)[C@@H](C(C)C)C(=O)O[C@@H]4C)c3nc-2c(C(=O)N[C@@H]2C(=O)N[C@H](C(C)C)C(=O)N3CCC[C@H]3C(=O)N(C)CC(=O)N(C)[C@@H](C(C)C)C(=O)O[C@@H]2C)c(N)c1=O` (I: T[dV]P[Sar][NMeV] / II: T[dV]P[Sar][NMeV]; ester I:1-I:C, II:1-II:C; linker I:N-II:N via Actinocin(9to1)), for which the binding result in experiment [4] is “yes”.

Source of the values: paper PMC5902632 (2018).
